Source: US11807609B2, “Deuterated compounds as immunomodulators” (CHEMOCENTRYX, INC., priority 2017, dated 2023)

target: T1, C5aR (Homo sapiens, UniProt P21730); assay: C5a-induced chemotaxis (migration) assay in freshly-drawn human blood, ChemoTX plate, CyQUANT readout; assay type: cell-based; conditions: migration of cells from human whole blood (EDTA) toward recombinant hC5a, 37° C., 90-180 minutes; read-out: Mig IC50
T1 construct: added to freshly-drawn human blood (EDTA as anticoagulant); endogenous in cells; host or cells: leukocytes in freshly drawn human whole blood (EDTA)
T1 sequence (P21730 1-350): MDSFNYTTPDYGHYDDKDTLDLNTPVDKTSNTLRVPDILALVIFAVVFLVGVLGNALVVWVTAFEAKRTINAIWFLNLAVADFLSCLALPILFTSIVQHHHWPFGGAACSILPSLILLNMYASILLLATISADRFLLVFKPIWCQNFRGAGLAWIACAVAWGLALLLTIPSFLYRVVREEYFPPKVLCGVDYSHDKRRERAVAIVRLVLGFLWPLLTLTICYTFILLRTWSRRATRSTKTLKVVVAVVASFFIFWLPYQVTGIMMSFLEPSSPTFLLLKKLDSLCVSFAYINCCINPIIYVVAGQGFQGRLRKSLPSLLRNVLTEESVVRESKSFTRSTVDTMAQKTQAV
Protocol: A serial dilution of C5aR compound or an equivalent volume of DMSO was added to freshly-drawn human blood (EDTA as anticoagulant). Separately, recombinant hC5a was diluted with chemotaxis buffer, after which 29 μl of diluted chemokine was placed in the lower wells of a ChemoTX plate (Neuro Probe, Gaithersburg, MD). A 3-μm (pore size) polycarbonate membrane (Neuro Probe, Gaithersburg, MD) was placed onto the plate, and 20 μL of the blood/compound mixture was transferred onto each well of the membrane. The plates were incubated at 37° C. for 90-180 minutes, after which the polycarbonate membranes were removed and 5 μl of the DNA-intercalating agent CyQUANT (Invitrogen, Carlsbad, CA) was added to the lower wells. The amount of fluorescence, corresponding to the number of migrated cells, was measured using a Spectrafluor Plus plate reader (TECAN, San Jose, CA).
Compounds in Table 1 were prepared by methods as described in the Examples, and evaluated according to the assay above. The IC50 of the compounds are presented in Table 1 as follows: +++, IC50≤100 nM .

IC50, ≤ 100 nM:
[2H]c1cc(C)c(C(=O)N2CCC[C@H](C(=O)Nc3ccc(C([2H])([2H])O)c(C(F)(F)F)c3)[C@@H]2c2ccc(NC3CCCC3)cc2)c(F)c1 [Compound 1.001]
[2H]c1cc([C@H]2[C@@H](C(=O)Nc3ccc(C([2H])([2H])O)c(C(F)(F)F)c3)CCCN2C(=O)c2c(C)cccc2F)ccc1NC1CCCC1 [Compound 1.002]
[2H]C([2H])([2H])c1cccc(F)c1C(=O)N1CCC[C@H](C(=O)Nc2ccc(C([2H])([2H])O)c(C(F)(F)F)c2)[C@@H]1c1ccc(NC2CCCC2)cc1 [Compound 1.003, (2R,3S)-2-(4-(cyclopentylamino)phenyl)-1-(2-fluoro-6-(methyl-d3)benzoyl)-N-(4-(hydroxymethyl-d2)-3-(trifluoromethyl)phenyl)piperidine-3-carboxamide]
[2H]c1cc([C@H]2[C@@H](C(=O)Nc3ccc(C)c(C(F)(F)F)c3)CCCN2C(=O)c2c(F)cccc2C([2H])([2H])[2H])ccc1NC1CCCC1 [Compound 1.004]
[2H]C1([2H])CC(Nc2ccc([C@H]3[C@@H](C(=O)Nc4ccc(C)c(C(F)(F)F)c4)CCCN3C(=O)c3c(C)cccc3F)cc2)CC1([2H])[2H] [Compound 1.005]
[2H]C([2H])(O)c1ccc(NC(=O)[C@H]2CCCN(C(=O)c3c(C)cccc3F)[C@H]2c2ccc(NC3CCCC3)cc2)cc1C(F)(F)F [Compound 1.006, (2R,3S)-2-(4-(cyclopentylamino)phenyl)-1-(2-fluoro-6-methylbenzoyl)-N-(4-(hydroxymethyl-d2)-3-(trifluoromethyl)phenyl)-piperidine-3-carboxamide]
[2H]c1cc([C@H]2[C@@H](C(=O)Nc3c([2H])cc(C)c(C(F)(F)F)c3[2H])CCCN2C(=O)c2c(C)cccc2F)ccc1NC1CCCC1 [Compound 1.007]
[2H]c1cc([C@H]2[C@@H](C(=O)Nc3ccc(C)c(C(F)(F)F)c3)CCCN2C(=O)c2c(C)cccc2F)ccc1NC1CCCC1 [Compound 1.008]
[2H]C1(Nc2ccc([C@H]3[C@@H](C(=O)Nc4ccc(C)c(C(F)(F)F)c4)CCCN3C(=O)c3c(C)cccc3F)cc2)CCCC1 [Compound 1.009]
[2H]C([2H])([2H])c1ccc(NC(=O)[C@H]2CCCN(C(=O)c3c(F)cccc3C([2H])([2H])[2H])[C@H]2c2ccc(NC3CCCC3)cc2)cc1C(F)(F)F [Compound 1.010, (2R,3S)-2-(4-(cyclopentylamino)phenyl)-1-(2-fluoro-6-(methyl-d3)benzoyl)-N-(4-(methyl-d3)-3-(trifluoromethyl)phenyl)piperidine-3-carboxamide]
[2H]C([2H])([2H])c1cccc(F)c1C(=O)N1CCC[C@H](C(=O)Nc2ccc(CO)c(C(F)(F)F)c2)[C@@H]1c1ccc(NC2CCCC2)cc1 [Compound 1.011]
[2H]c1cc(C)c(C(F)(F)F)c([2H])c1NC(=O)[C@H]1CCCN(C(=O)c2c(F)cccc2C([2H])([2H])[2H])[C@H]1c1ccc(NC2CCCC2)cc1 [Compound 1.012]
[2H]c1cc(C)c(C(=O)N2CCC[C@H](C(=O)Nc3ccc(C)c(C(F)(F)F)c3)[C@@H]2c2ccc(NC3CC([2H])([2H])C([2H])([2H])C3)cc2)c(F)c1 [Compound 1.013]
[2H]C([2H])([2H])c1cccc(F)c1C(=O)N1CCC[C@H](C(=O)Nc2ccc(C)c(C(F)(F)F)c2)[C@@H]1c1ccc(NC2CC([2H])([2H])C([2H])([2H])C2)cc1 [Compound 1.014, (2R,3S)-2-(4-((cyclopentyl-3,3,4,4-d4)amino)phenyl)-1-(2-fluoro-6-(methyl-d3)benzoyl)-N-(4-methyl-3-(trifluoromethyl)phenyl)piperidine-3-carboxamide]
[2H][C@]1(C(=O)Nc2ccc(C)c(C(F)(F)F)c2)CCCN(C(=O)c2c(C)cccc2F)[C@H]1c1ccc(NC2CCCC2)cc1 [Compound 1.015]
[2H]c1cc(C)c(C(=O)N2CCC[C@H](C(=O)Nc3ccc(C)c(C(F)(F)F)c3)[C@@H]2c2ccc(NC3CCCC3)cc2)c(F)c1 [Compound 1.016]
[2H]C([2H])([2H])c1cccc(F)c1C(=O)N1CCC[C@H](C(=O)Nc2ccc(C)c(C(F)(F)F)c2)[C@@H]1c1ccc(NC2CCCC2)cc1 [Compound 1.017]
[2H]c1cc(C)c(C(F)(F)F)c([2H])c1NC(=O)[C@H]1CCCN(C(=O)c2c(C)cccc2F)[C@H]1c1ccc(NC2CCCC2)cc1 [Compound 1.018, (2R,3S)-2-(4-(cyclopentylamino)phenyl)-1-(2-fluoro-6-methylbenzoyl)-N-(4-methyl-3-(trifluoromethyl)phenyl-2,6-d3)piperidine-3-carboxamide]
[2H]C1([2H])C([2H])([2H])C([2H])([2H])C([2H])(Nc2ccc([C@H]3[C@@H](C(=O)Nc4ccc(C)c(C(F)(F)F)c4)CCCN3C(=O)c3c(C)cccc3F)cc2)C1([2H])[2H] [Compound 1.019, (2R,3S)-2-(4-((cyclopentyl-d9)amino)phenyl)-1-(2-fluoro-6-methylbenzoyl)-N-(4-methyl-3-(trifluoromethyl)phenyl)piperidine-3-carboxamide]
[2H]c1cc(C)c(C(F)(F)F)cc1NC(=O)[C@H]1CCCN(C(=O)c2c(C)cccc2F)[C@H]1c1ccc(NC2CCCC2)cc1 [Compound 1.020]
[2H]C([2H])([2H])c1ccc(NC(=O)[C@H]2CCCN(C(=O)c3c(C)cccc3F)[C@H]2c2ccc(NC3CCCC3)cc2)cc1C(F)(F)F [Compound 1.021, (2R,3S)-2-(4-(cyclopentylamino)phenyl)-1-(2-fluoro-6-methylbenzoyl)-N-(4-(methyl-d3)-3-(trifluoromethyl)phenyl)piperidine-3-carboxamide]
